From US20260226493A1, “HERBICIDE RESISTANT PLANTS” (SYNGENTA CROP PROTECTION AG, priority 2023, published 2026) come the findings set out here.

A word on the IC50: it is the concentration needed to halve the response being measured. A low value points to inhibition by little substance.

Each structure is given as a SMILES string.

In assay [1] the test system is D4586 (Zea mays BIO3-BIO1 C372D) containing tobacco plants. Briefly: Visual herbicide damage score on transgenic tobacco D4586 (pCMP ZmBioDA C372D). It counts as in vivo. The settings on record: 600 gai/ha; 7 DAT; each table row is one D4586 transgenic plant. An excerpt: Populations of transgenic tobacco comprising 20-30 transgenic events per plant transformation constructs were generated as described in Example 1. These lines were clonally propagated and 1 clone per event was sprayed with 600 g ai/ha compound L or A+0.2% Genapol X080 with a spray volume of 200 L/Ha (“g ai/ha” refers to grams of active compound per hectare).
Herbicidal damage was visually assessed across the population and a herbicide damage score given at 7, 14 and 21 days. A score of 0 indicates no visible damage or stunting whereas a score of 100 indicates a complete death of the plant. 20 transgenic events (i.e. individual transgenic plants) from each GM tobacco line were transplanted to soil 1 week prior to spraying with BIO3-BIO1inhibiting compounds. WT tobacco was included as a control.
To determine if overexpression of variants detailed in Example 7 confer resistance to BIO3-BIO1 inhibiting compounds when expressed in plants, GM tobacco lines were produced using the methods in Example 1 and tested with BIO3-BIO1 inhibiting compounds.
Transgenic tobacco plants expressing the Arabidopsis thaliana BIO3-BIO1 variants C388D (SEQ ID NO:26), P421L(SEQ ID NO:41), F348C (SEQ ID NO:28), G700S (SEQ ID NO:39), W392S (SEQ ID NO:70) and the Zea mays BIO3-BIO1 variant C372D (SEQ ID NO:324). Populations of transgenic tobacco were sprayed and assessed as in Example 2

For assay [2], the target named is T1, Arabidopsis thaliana BioDA variant enzymes (Arabidopsis thaliana, UniProt B0F481, W391L).
T1 construct: with the predicted N-terminal mitochondrial transit peptide removed; 6xHis-tag (N); thrombin cleavage site (N); made in house; host or cells: E. coli BL21 (DE3) bioA
T1 sequence (B0F481 24-833 W391L): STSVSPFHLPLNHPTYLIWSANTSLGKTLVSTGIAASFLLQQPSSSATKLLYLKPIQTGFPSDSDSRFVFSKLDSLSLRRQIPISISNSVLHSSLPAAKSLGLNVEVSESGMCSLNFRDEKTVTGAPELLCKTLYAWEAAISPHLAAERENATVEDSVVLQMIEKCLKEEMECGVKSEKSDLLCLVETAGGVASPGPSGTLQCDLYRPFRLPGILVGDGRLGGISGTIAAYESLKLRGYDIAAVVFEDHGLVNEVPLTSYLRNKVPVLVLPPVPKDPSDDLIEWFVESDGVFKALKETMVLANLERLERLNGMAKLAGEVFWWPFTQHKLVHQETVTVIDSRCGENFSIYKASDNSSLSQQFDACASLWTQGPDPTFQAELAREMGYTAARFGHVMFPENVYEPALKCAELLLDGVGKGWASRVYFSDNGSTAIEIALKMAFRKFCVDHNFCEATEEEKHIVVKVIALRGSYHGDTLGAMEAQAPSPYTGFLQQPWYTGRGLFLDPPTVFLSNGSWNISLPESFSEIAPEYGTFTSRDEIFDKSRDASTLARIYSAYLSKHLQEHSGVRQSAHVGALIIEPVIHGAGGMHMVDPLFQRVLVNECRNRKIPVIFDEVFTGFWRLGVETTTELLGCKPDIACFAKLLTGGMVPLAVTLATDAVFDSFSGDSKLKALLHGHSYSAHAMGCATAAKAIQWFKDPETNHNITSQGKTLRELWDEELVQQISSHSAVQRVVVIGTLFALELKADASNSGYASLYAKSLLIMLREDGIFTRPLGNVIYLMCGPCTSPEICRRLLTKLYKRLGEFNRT
The assay is described as follows: biochemical. Here is the method: (§1) These plasmids were then expressed in E. coli BL21 (DE3) bioA with 50 μg/mL kanamycin and 25 μg/mL chloramphenicol selection. Overnight cultures grown at 37° C. were used to inoculate 8×500 mL AIM in shake flasks at a ratio of 1:100. Cultures were grown at 37° C., 200 rpm for 3.5 hours and then overnight at 20° C. Cells were harvested by centrifugation for 30 minutes at 10 000 g. Cells were stored at −80° C. until extraction. 30 g of cell pellet from was thawed in 120 mL of IMAC buffer A (20 mM HEPES pH7.5, 25 mM imidazole, 500 mM sodium chloride, 0.15 mM pyridoxal phosphate, 0.5 mM TCEP, 1× complete Protease Inhibitor Tablet (Roche)). The resuspension was passed through a cell disrupter at 18 000 PSI and centrifuged at 50 000 g for 25 minutes at 4° C. The His-tagged BIO3-BIO1 protein was purified from the extract supernatant on an AKTA avant chromatography system (Cytiva) using a HisTrap FF column and eluted in IMAC buffer B ((20 mM HEPES pH7.5, 500 mM imidazole, 500 mM sodium chloride, 0.15 mM pyridoxal phosphate, 0.5 mM TCEP) followed by SEC using a HiLoad 26/60 Superdex200 column in SEC buffer (25 mM HEPES pH7.5, 150 mM sodium chloride, 0.15 mM pyridoxal phosphate, 0.5 mM TCEP). Protein concentration was measured and calculated using the absorbance at 280 nm. Extracts were diluted 1 in 4 and 10 uL was analysed by SDS PAGE.
(§2) To measure BIO3-BIO1 mutant enzyme activity in the presence of herbicide, herbicides were incubated with 20 μL of enzyme mix (100 mM EPPS pH 8.6, 0.1 mM pyridoxal phosphate, 0.1 mg/mL BSA, 50 nM BIO3-BIO1 enzyme) for 10 minutes at 20° C. in a well of a 96-well half-area black plate, followed by the addition of 20 μL of substrate mix (final concentration of 100 mM EPPS pH 8.6, 0.1 mM pyridoxal phosphate, 0.1 mg/mL BSA, 100 μM spermidine, 20 μM KAPA, 100 mM NaCO3) and further incubation for 75 minutes at 20° C. The reaction was terminated by the addition of 50 μL of derivatisation mix (final concentration of 250 mM borate NaOH pH 9.4, 3.6 mM o-phthalaldehyde, 7 mM β-mercaptoethanol, 17% (v/v) ethanol, 3.6% (v/v) methanol). The fluorescent product produced by the reaction of DAPA with o-phthalaldehyde and 7 mM β-mercaptoethanol was measured at 470 nm after excitation at 410 nm.
(§3) For IC50 calculations, appropriate dose responses of compounds L, M, B, K and G were used. Calculated percentage inhibitions were then input into GraphPad Prism 7 and IC50s calculated using the non-linear regression (vs. normalised response) equation.

Assay [3] addresses T2, Arabidopsis thaliana BioDA variant enzymes (Arabidopsis thaliana, UniProt B0F481, W392G).
T2 construct: with the predicted N-terminal mitochondrial transit peptide removed; 6xHis-tag (N); thrombin cleavage site (N); made in house; host or cells: E. coli BL21 (DE3) bioA
The assay is described as follows: biochemical. As to the method: as §1, §2, §3

In assay [4] the target is T3, Arabidopsis thaliana BioDA variant enzymes (Arabidopsis thaliana, UniProt B0F481, C388T).
T3 construct: with the predicted N-terminal mitochondrial transit peptide removed; 6xHis-tag (N); thrombin cleavage site (N); made in house; host or cells: E. coli BL21 (DE3) bioA
T3 sequence (B0F481 24-833 C388T): as the sequence (B0F481 24-833 W391L) above, with C365T, L368W counted along it
Briefly: biochemical. Here is the method:
as §1, §2, §3

Assay [5] concerns the target T4, Arabidopsis thaliana BioDA variant enzymes (Arabidopsis thaliana, UniProt B0F481, F348C).
T4 construct: with the predicted N-terminal mitochondrial transit peptide removed; 6xHis-tag (N); thrombin cleavage site (N); made in house; host or cells: E. coli BL21 (DE3) bioA
The assay is described as follows: biochemical. Here is the method: as §1, §2, §3

Assay [6] concerns the target T5, Arabidopsis thaliana BioDA variant enzymes (Arabidopsis thaliana, UniProt B0F481, P421L).
T5 construct: with the predicted N-terminal mitochondrial transit peptide removed; 6xHis-tag (N); thrombin cleavage site (N); made in house; host or cells: E. coli BL21 (DE3) bioA
Briefly: biochemical. Here is the method: as §1, §2, §3

T2 sequence (B0F481 24-833 W392G): as the sequence (B0F481 24-833 W391L) above, with L368W, W369G counted along it
T5 sequence (B0F481 24-833 P421L): as the sequence (B0F481 24-833 W391L) above, with L368W, P398L counted along it
T4 sequence (B0F481 24-833 F348C): as the sequence (B0F481 24-833 W391L) above, with F325C, L368W counted along it

For the molecule `CCn1c(Cn2ccc(C(F)(F)F)n2)cc(=O)c(C(=O)O)c1-c1ccc(Cl)c(Cl)c1` [Compound L, 2-(3,4-dichlorophenyl)-1-ethyl-4-oxo-6-[[3-(trifluoromethyl)pyrazol-1-yl]methyl]pyridine-3-carboxylic acid], in assay [1], the percentage of damage came out at 10%. Moreover, the half-inhibitory concentration (IC50) in assay [2] is 16.3 µM; in assay [3], 17.7 µM; in assay [4], 0.092 µM; in assay [5] it was 77.6 µM; in assay [6], 0.687 µM.
